Experimental data reported in patent US9435795B2, “Enhanced deposition of chromogens utilizing pyrimidine analogs” (Ventana Medical Systems, Inc., priority 2010, dated 2016).
Converted amounts (≈) assume the structure as drawn. “And” between values parts separate entries of the source, which are not always exact repeats. Equal entries are not always repeated. Where two headings read alike, the source gives them in different places.

Columns and labels:
[1] = target: T1, horseradish peroxidase (HRP) (Armoracia rusticana, UniProt P00433); assay: Plate assay: kinetic screening of enhancers of HRP-mediated DAB oxidation (ultraView Detection Kit, OD 455 nm); type: biochemical; conditions: for Percent increase of apparent Vmax of HRP: relative to uView Vmax without enhancement
T1 construct: purchased VMSI (Ventana Medical Systems, Inc.) 760-500: 253-4290, 253-4292 and 253-4293
T1 sequence (P00433 31-338): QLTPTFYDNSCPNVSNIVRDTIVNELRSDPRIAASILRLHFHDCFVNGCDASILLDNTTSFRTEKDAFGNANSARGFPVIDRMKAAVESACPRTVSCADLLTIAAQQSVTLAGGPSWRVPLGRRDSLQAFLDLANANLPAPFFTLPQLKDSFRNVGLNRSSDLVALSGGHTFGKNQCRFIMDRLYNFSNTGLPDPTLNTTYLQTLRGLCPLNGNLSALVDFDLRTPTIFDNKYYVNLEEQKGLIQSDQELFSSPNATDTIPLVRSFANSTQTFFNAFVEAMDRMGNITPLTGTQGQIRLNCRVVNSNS
Procedure: The additives were directly added to a well containing the necessary reagents from the ultraView™ Detection Kit (VMSI 760-500: 253-4290, 253-4292 and 253-4293) in 1× Reaction Buffer (VMSI 950-300) and 0.1% fish gelatin. Fish gelatin was used to help disperse the oxidized DAB and inhibit its precipitation from solution. The ultraView™ Detection Kit was diluted to measure the formation of oxidized DAB by UV-VIS at 455 nm. Additives were tested at set concentrations to determine enhancement in the DAB oxidation reaction. The data were graphed, and the apparent maximum velocity (Vmax) was calculated at each additive concentration level.

[2] = Solubility of additive in reaction buffer / aqueous buffers; type: physicochemical; conditions: for solubility: reaction buffer, aqueous buffer, read-out: Solubility of additive in reaction buffer at room temperature
[3] = enhancer 10 mM, no enhancer 18.50
[4] = enhancer 50 mM, no enhancer 18.50, (sat) = reaction rate saturated by start of UV-VIS analysis
[5] = enhancer 100 mM, no enhancer 18.50, (sat) = reaction rate saturated by start of UV-VIS analysis

SMILES	Vmax (apparent, HRP-oxidized DAB) [1, 3]	Vmax (apparent, HRP-oxidized DAB) [1, 4]	Vmax (apparent, HRP-oxidized DAB) [1, 5]	Enhancement of apparent velocity of HRP-mediated DAB oxidation (in words) [1]	further results
O=C1CC(=O)NC(=S)N1 [2-Thiobarbituric Acid]	54.00 mOD/min	56.00 mOD/min	76.00 mOD/min	–	–
CC(=O)Nc1ccc(B(O)O)cc1 [4-AcHNPhB(OH)2, 4-acetylamidophenyl boronic acid]	32.80 mOD/min	–	–	–	Vmax (apparent, HRP-oxidized DAB) ([1]; enhancer 5 mM, no enhancer 18.50): 21.20 mOD/min; Percent increase of apparent Vmax of HRP ([1]; enhancer 10 mM): 77%; Vmax (apparent, HRP-oxidized DAB) ([1]; enhancer 20 mM, no enhancer 18.50): 32.00 mOD/min
CN(C)c1ccncc1 [4-dimethylaminopyridine]	–	–	–	no enhancement	–
c1ccc2[nH]cnc2c1 [Benzimidazole]	–	–	–	no enhancement	–
OB(O)O [Boric Acid]	67.47 mOD/min	–	–	–	Percent increase of apparent Vmax of HRP ([1]; enhancer 10 mM): 265%; Percent increase of apparent Vmax of HRP ([1]; enhancer 50 mM): 592%
[Ca+2].[Cl-].[Cl-] [Calcium Chloride]	–	–	–	–	Vmax (apparent, HRP-oxidized DAB) [1]: 43.50 mOD/min and 52.50 mOD/min and 57.00 mOD/min
Nc1cc[nH]c(=O)n1 [Cytosine]	36.00 mOD/min	66.00 mOD/min	–	increased the apparent velocity of HRP	Solubility in aqueous buffers (in words) [2]: solubility problems in aqueous buffers; solubility ([2]; additive 50 mM): 10 to 50 mM (≈ 1110 to 5560 µg/mL); solubility ([2]; additive 100 mM): 10 to 100 mM (≈ 1110 to 11100 µg/mL)
N[C@@H](Cc1c[nH]c2ccccc12)C(=O)O [L-Tryptophan]	30.00 mOD/min	52.00 mOD/min	64.00 mOD/min	–	–
c1cocn1 [Oxazole]	24.00 mOD/min	40.00 mOD/min	18.00 (sat) mOD/min	–	–
CC1(C)CCCC(C)(C)N1[O] [TEMPO, 2,2,6,6-tetramethylpiperidine-1-oxyl]	–	–	–	–	Vmax (apparent, HRP-oxidized DAB) ([1]; enhancer 0.13% (8 mM)): 18.00 mOD/min; Vmax (apparent, HRP-oxidized DAB) ([1]; enhancer 0.25% (16 mM)): 24.80 mOD/min; Vmax (apparent, HRP-oxidized DAB) ([1]; enhancer 0.50% (32 mM)): 21.20 mOD/min
c1cscn1 [Thiazole]	66.40 mOD/min	27.00 (sat) mOD/min	27.05 (sat) mOD/min	–	–
Cc1c[nH]c(=O)[nH]c1=O [Thymine]	82.00 mOD/min	86.00 mOD/min	74.00 mOD/min	increased the apparent velocity of HRP	–
O=c1cc[nH]c(=O)[nH]1 [Uracil]	52.00 mOD/min	72.00 mOD/min	–	increased the apparent velocity of HRP	Solubility in aqueous buffers (in words) [2]: solubility problems in aqueous buffers; solubility ([2]; additive 50 mM): 10 to 50 mM (≈ 1120 to 5600 µg/mL); solubility ([2]; additive 100 mM): 10 to 100 mM (≈ 1120 to 11200 µg/mL)
CN(C)c1ccc2nc3ccc(=[N+](C)C)cc-3sc2c1 [methylene blue]	–	–	–	no enhancement	–
c1ccc2c(c1)Nc1ccccc1S2 [phenothiazine]	–	–	–	no enhancement	–
